According to publication PMC9482650, “Quantitative fragmentomics allow affinity mapping of interactomes” (Nature Communications, 2022):
Ends that are not written are not given here. * marks the point of attachment. Biotin = O=C1N[C@H]2[C@H](CS[C@H]2CCCCC(=O)*)N1; ttds = NCCCOCCOCCOCCCNC(=O)CCC(=O)*

Legend:
[1] = tested on: Jurkat cell extract preys; test: PBM-AP-MS, PBM peptide baits; format: binding, human
Protocol: (§1) HEK293T and HeLa cells were authenticated and found 100% identity to ATCC cat. CRL-3216 and ATCC cat. CCL-2, respectively. Jurkat and HaCat cell lines were not authenticated (original source: ECACC and Deutsches Krebsforschungszentrum DKFZ, respectively). HeLa cells were grown in DMEM (1 g/L glucose, Gibco) medium completed with 5% FCS and 40 μg/mL gentamicin, diluted every 3rd/4th day 1/10. HaCat cells were grown in DMEM (1 g/L glucose, Gibco) medium completed with 10% FCS and 40 μg/mL gentamicin, diluted every 3rd/4th day 1/4. Jurkat cells were grown in RPMI (Gibco) medium completed with 10% FCS and 40 μg/mL gentamicin, diluted every 3rd/4th day 1/12. All cells were kept at 37 °C and 5% CO2. For proteomics analyses cells were seeded on T-175 flasks. After they reached confluency, adherent cells were washed with PBS once and collected by scraping with ice-cold lysis buffer (Hepes-KOH pH 7.5 50 mM, NaCl 150 mM, Triton X-100 1%, complete EDTA-free protease inhibitor cocktail 1×, EDTA 2 mM, TCEP 5 mM, glycerol 10%). Jurkat cells were collected by 1000 g × centrifugation, washed once with PBS, then collected by 1000 g × 5 min centrifugation again and lysed in ice-cold lysis buffer. Lysates were sonicated 4 × 20 s with 1 s long pulses on ice, then incubated rotating at 4 °C for 30 min. Lysates were centrifuged at 12,000 rpm 4 °C for 20 min and supernatant was kept for further analysis. Concentration determination was carried out by standard Bradford method (Bio-Rad Protein Assay Dye Reagent #5000006) using BSA (MP BIomedicals #160069) as control on a Bio-Rad SmartSpec 3000 spectrophotometer instrument.
(§2) For PBM-AP-MS experiments, 30 μl streptavidin resin was mixed with biotin or peptide at 50–60 μM concentration in 6–6.5 resin volume for 60 min to achieve resin saturation. For PDZ-AP-MS experiments, 30 μl streptavidin resin was mixed with biotinylated MBP or MBP-PDZ at 40-50 μM concentration in >1000× resin volume for 60 min to achieve resin saturation. After saturation, resins were washed a single time (ten resin volume, holdup buffer), and were depleted with biotin (1 mM biotin, 5–10 resin volume, 10 min). Finally, resins were washed two times. 0.5 ml 2 mg/ml cell lysate was added to the dry resin (1 mg total input) and were incubated at 4 °C for 2 h. Then, the beads were washed three times with 10 resin volume buffer containing: 50 mM TRIS pH 8.5, 150 mM NaCl, 1% TritonX-100, 10× complete EDTA-free protease inhibitor cocktail, 2 mM EDTA, 1 mM TCEP. Then, the beads were washed two times with ten resin volume buffer containing: 50 mM TRIS pH 8.5, 150 mM NaCl, 1 mM TCEP. Finally, captured protein was eluted from the resin in two steps and the eluted fractions were pooled. For each elution the beads were incubated for 30 min with three resin volume buffer containing: 20 mM TRIS pH8.5, 100 mM NaCl, 500 μM TCEP, 8 M Urea. Between each step, the beads were separated by mild centrifugation and the supernatant was removed by gentle pipetting.
(§3) The samples were precipitated with TCA 20% overnight at 4 °C and centrifuged at 14,000 rpm for 10 min at 4 °C. The protein pellets were washed twice with 1 mL cold acetone and air dried. The protein extracts were solubilized in urea 8 M, reduced with 5 mM TCEP for 30 min, and alkylated with 10 mM iodoacetamide for 30 min in the dark. Double digestion was performed at 37 °C with 500 ng endoproteinase Lys-C for 4 h, followed by fourfold dilution and an overnight digestion with 500 ng trypsin. Peptide mixtures were then desalted on C18 spin-column and dried on Speed-Vacuum.
(§4) Samples were analyzed using an Ultimate 3000 nano-RSLC (Thermo Scientific, San Jose California) coupled in line with a LTQ-Orbitrap ELITE mass spectrometer via a nano-electrospray ionization source (Thermo Scientific, San Jose California). […]

[2] = tested on: HeLa cell extract preys; test: PBM-AP-MS, PBM peptide baits; format: binding, human
Protocol: as §1, §2, §3, §4

Substance: HPV18E6
- Enrichment values compared to biotin controls ([1]; prey APBA1, PBM peptide bait): 5.1
- Enrichment values compared to biotin controls ([1]; prey DLG4, PBM peptide bait): 3.2
- Enrichment values compared to biotin controls ([1]; prey DVL2, PBM peptide bait): 1.0
- Enrichment values compared to biotin controls ([1]; prey GOPC, PBM peptide bait): 15.5
- Enrichment values compared to biotin controls ([1]; prey InaDl, PBM peptide bait): 0.8
- Enrichment values compared to biotin controls ([1]; prey LAP2, PBM peptide bait): 2.3
- Enrichment values compared to biotin controls ([1]; prey LNX2, PBM peptide bait): 1.0
- Enrichment values compared to biotin controls ([1]; prey MAGI3, PBM peptide bait): 5.4
- Enrichment values compared to biotin controls ([1]; prey MPP1, PBM peptide bait): 0.547
- Enrichment values compared to biotin controls ([1]; prey MPP5, PBM peptide bait): 3.3
- Enrichment values compared to biotin controls ([1]; prey MPP6, PBM peptide bait): 2.5
- Enrichment values compared to biotin controls ([1]; prey MPP7, PBM peptide bait): 4.4
- Enrichment values compared to biotin controls ([1]; prey MYO18A, PBM peptide bait): 0.4
- Enrichment values compared to biotin controls ([1]; prey PDLIM2, PBM peptide bait): 1.5
- Enrichment values compared to biotin controls ([1]; prey PDLIM5, PBM peptide bait): 0.8
- Enrichment values compared to biotin controls ([1]; prey PDLIM7, PBM peptide bait): 1.1
- Enrichment values compared to biotin controls ([1]; prey PDZD11, PBM peptide bait): 1.0
- Enrichment values compared to biotin controls ([1]; prey PSMD9, PBM peptide bait): 0.8
- Enrichment values compared to biotin controls ([1]; prey SIPA1L1, PBM peptide bait): 1.2
- Enrichment values compared to biotin controls ([1]; prey SIPA1L2, PBM peptide bait): 1.1
- Enrichment values compared to biotin controls ([1]; prey SNTB1, PBM peptide bait): 6.6
- Enrichment values compared to biotin controls ([1]; prey SNTB2, PBM peptide bait): 1.1
- Enrichment values compared to biotin controls ([1]; prey SNX27, PBM peptide bait): 16.6
- Enrichment values compared to biotin controls ([1]; prey SYNJ2BP, PBM peptide bait): 14.2
- Enrichment values compared to biotin controls ([1]; prey TX1B3, PBM peptide bait): 7.1
- Enrichment values compared to biotin controls ([2]; prey AHNAK, PBM peptide bait): 0.9
- Enrichment values compared to biotin controls ([2]; prey ARHGAP21, PBM peptide bait): 1.1
- Enrichment values compared to biotin controls ([2]; prey ARHGEF12, PBM peptide bait): 1.0
- Enrichment values compared to biotin controls ([2]; prey CASK, PBM peptide bait): 5.3
- Enrichment values compared to biotin controls ([2]; prey DLG1, PBM peptide bait): 6.5
- Enrichment values compared to biotin controls ([2]; prey DLG3, PBM peptide bait): 5.8
- Enrichment values compared to biotin controls ([2]; prey DLG5, PBM peptide bait): 1.4
- Enrichment values compared to biotin controls ([2]; prey DVL2, PBM peptide bait): 1.0
- Enrichment values compared to biotin controls ([2]; prey GOPC, PBM peptide bait): 2.8
- Enrichment values compared to biotin controls ([2]; prey HTRA1, PBM peptide bait): 2.4
- Enrichment values compared to biotin controls ([2]; prey InaDl, PBM peptide bait): 3.6
- Enrichment values compared to biotin controls ([2]; prey LAP2, PBM peptide bait): 1.8
- Enrichment values compared to biotin controls ([2]; prey LIN7C, PBM peptide bait): 285.6
- Enrichment values compared to biotin controls ([2]; prey LMO7, PBM peptide bait): 1.9
- Enrichment values compared to biotin controls ([2]; prey MPDZ, PBM peptide bait): 3.2
- Enrichment values compared to biotin controls ([2]; prey MPP5, PBM peptide bait): 60.3
- Enrichment values compared to biotin controls ([2]; prey MPP6, PBM peptide bait): 3.7
- Enrichment values compared to biotin controls ([2]; prey MPP7, PBM peptide bait): 14.5
- Enrichment values compared to biotin controls ([2]; prey NHERF2, PBM peptide bait): 0.843
- Enrichment values compared to biotin controls ([2]; prey NHERF3, PBM peptide bait): 0.8
- Enrichment values compared to biotin controls ([2]; prey PDLIM5, PBM peptide bait): 0.9
- Enrichment values compared to biotin controls ([2]; prey PDLIM7, PBM peptide bait): 0.8
- Enrichment values compared to biotin controls ([2]; prey PSMD9, PBM peptide bait): 0.8
- Enrichment values compared to biotin controls ([2]; prey SCRIB, PBM peptide bait): 215.8
- Enrichment values compared to biotin controls ([2]; prey SIPA1L1, PBM peptide bait): 0.9
- Enrichment values compared to biotin controls ([2]; prey SNTA1, PBM peptide bait): 1.2
- Enrichment values compared to biotin controls ([2]; prey SNTB1, PBM peptide bait): 18.1
- Enrichment values compared to biotin controls ([2]; prey SNTB2, PBM peptide bait): 76.9
- Enrichment values compared to biotin controls ([2]; prey SNX27, PBM peptide bait): 12.8
- Enrichment values compared to biotin controls ([2]; prey SYNJ2BP, PBM peptide bait): 49.1
- Enrichment values compared to biotin controls ([2]; prey TJP1, PBM peptide bait): 1.7
- Enrichment values compared to biotin controls ([2]; prey TX1B3, PBM peptide bait): 30.0

Substance: HPV30E6 ({Biotin-ttds}-RHTTSTETAV)
- Enrichment values compared to biotin controls ([1]; prey APBA1, PBM peptide bait): 2.1
- Enrichment values compared to biotin controls ([1]; prey DLG4, PBM peptide bait): 4.1
- Enrichment values compared to biotin controls ([1]; prey DVL2, PBM peptide bait): 0.9
- Enrichment values compared to biotin controls ([1]; prey GOPC, PBM peptide bait): 1.2
- Enrichment values compared to biotin controls ([1]; prey InaDl, PBM peptide bait): 0.6
- Enrichment values compared to biotin controls ([1]; prey LAP2, PBM peptide bait): 2.7
- Enrichment values compared to biotin controls ([1]; prey LNX2, PBM peptide bait): 0.543
- Enrichment values compared to biotin controls ([1]; prey MAGI3, PBM peptide bait): 2.1
- Enrichment values compared to biotin controls ([1]; prey MPP1, PBM peptide bait): 1.4
- Enrichment values compared to biotin controls ([1]; prey MPP5, PBM peptide bait): 1.1
- Enrichment values compared to biotin controls ([1]; prey MPP6, PBM peptide bait): 1.2
- Enrichment values compared to biotin controls ([1]; prey MPP7, PBM peptide bait): 2.8
- Enrichment values compared to biotin controls ([1]; prey MYO18A, PBM peptide bait): 1.1
- Enrichment values compared to biotin controls ([1]; prey PDLIM2, PBM peptide bait): 1.5
- Enrichment values compared to biotin controls ([1]; prey PDLIM5, PBM peptide bait): 0.9
- Enrichment values compared to biotin controls ([1]; prey PDLIM7, PBM peptide bait): 1.1
- Enrichment values compared to biotin controls ([1]; prey PDZD11, PBM peptide bait): 3.0
- Enrichment values compared to biotin controls ([1]; prey PSMD9, PBM peptide bait): 0.7
- Enrichment values compared to biotin controls ([1]; prey SIPA1L1, PBM peptide bait): 1.1
- Enrichment values compared to biotin controls ([1]; prey SIPA1L2, PBM peptide bait): 0.65
- Enrichment values compared to biotin controls ([1]; prey SNTB1, PBM peptide bait): 3.6
- Enrichment values compared to biotin controls ([1]; prey SNTB2, PBM peptide bait): 1.0
- Enrichment values compared to biotin controls ([1]; prey SNX27, PBM peptide bait): 14.6
- Enrichment values compared to biotin controls ([1]; prey SYNJ2BP, PBM peptide bait): 1.5
- Enrichment values compared to biotin controls ([1]; prey TX1B3, PBM peptide bait): 1.2
- Enrichment values compared to biotin controls ([2]; prey AHNAK, PBM peptide bait): 1.1
- Enrichment values compared to biotin controls ([2]; prey CASK, PBM peptide bait): 20.8
- Enrichment values compared to biotin controls ([2]; prey DLG1, PBM peptide bait): 6.0
- Enrichment values compared to biotin controls ([2]; prey DLG5, PBM peptide bait): 0.7
- Enrichment values compared to biotin controls ([2]; prey DVL2, PBM peptide bait): 0.7
- Enrichment values compared to biotin controls ([2]; prey HTRA1, PBM peptide bait): 1.3
- Enrichment values compared to biotin controls ([2]; prey InaDl, PBM peptide bait): 0.8
- Enrichment values compared to biotin controls ([2]; prey LAP2, PBM peptide bait): 1.5
- Enrichment values compared to biotin controls ([2]; prey LIN7C, PBM peptide bait): 110.0
- Enrichment values compared to biotin controls ([2]; prey LMO7, PBM peptide bait): 0.8
- Enrichment values compared to biotin controls ([2]; prey LNX2, PBM peptide bait): 1.0
- Enrichment values compared to biotin controls ([2]; prey MPDZ, PBM peptide bait): 1.6
- Enrichment values compared to biotin controls ([2]; prey MPP5, PBM peptide bait): 4.5
- Enrichment values compared to biotin controls ([2]; prey MPP7, PBM peptide bait): 9.1
- Enrichment values compared to biotin controls ([2]; prey PDLIM5, PBM peptide bait): 0.9
- Enrichment values compared to biotin controls ([2]; prey PDLIM7, PBM peptide bait): 0.9
- Enrichment values compared to biotin controls ([2]; prey PSMD9, PBM peptide bait): 0.7
- Enrichment values compared to biotin controls ([2]; prey SCRIB, PBM peptide bait): 155.6
- Enrichment values compared to biotin controls ([2]; prey SDCBP, PBM peptide bait): 1.3
- Enrichment values compared to biotin controls ([2]; prey SIPA1L1, PBM peptide bait): 0.5
- Enrichment values compared to biotin controls ([2]; prey SNTB1, PBM peptide bait): 6.5
- Enrichment values compared to biotin controls ([2]; prey SNTB2, PBM peptide bait): 1.1
- Enrichment values compared to biotin controls ([2]; prey SNX27, PBM peptide bait): 1.4
- Enrichment values compared to biotin controls ([2]; prey SYNJ2BP, PBM peptide bait): 15.4
- Fold changes HeLa, SYNJ2BP ([2]; prey SYNJ2BP, PBM peptide bait): 15.4
- Enrichment values compared to biotin controls ([2]; prey TJP1, PBM peptide bait): 0.7
